Among the test systems are CAKI-1; COLO 205; HOP-62; HOP-92; LOX IMVI; MCF7; MDA-MB-231; NCI-H23; NCI-H460; OVCAR-4; RXF 393; SF-295; SK-MEL-2; SNB-19; SR; TK-10; U-251; UACC-62; UO-31; SK-MEL-5.
Common to all, as to assay: NCI-60 cell line screen, 48 h

The results in this text go back to ChEMBL document CHEMBL1201862, “PubChem BioAssay data set” (2004).

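Method: 48-hour compound exposure of cells in 96-well plates, five concentrations, linear interpolation of endpoints. GI50 marks 50% less growth.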 Calls of active or inactive are those of the source. No stated cut-off is given here; in the data, active = GI50 up to about 1.1 µM and inactive = higher.

As for `Cc1nc2c3c(ncn2n1)Oc1c(c(-c2ccccc2)nn1-c1ccccc1)C3c1ccc(Cl)cc1` (stereo not given), the GI50 in the assay with CAKI-1 is > 100 µM (inactive); with COLO 205, > 100 µM (inactive); with HOP-62, 75.7 µM (inactive); with HOP-92 it was 98.4 µM (inactive); in the assay with LOX IMVI it was > 100 µM (inactive); in the assay with MCF7, > 100 µM (inactive). The GI50 in the assay on MDA-MB-231 is > 100 µM (inactive); in the assay on NCI-H23 it was > 100 µM (inactive); in the assay with NCI-H460, > 100 µM (inactive); in the assay with OVCAR-4, 22.1 µM (inactive); in the assay on RXF 393, 72.3 µM (inactive); in the assay on SF-295 it was 50.8 µM (inactive). Further, the GI50 is > 100 µM (inactive) with SK-MEL-2; 34.8 µM (inactive) in the assay on SNB-19; 45.1 µM (inactive) in the assay on SR; 39.4 µM (inactive) with TK-10; 53.6 µM (inactive) in the assay with U-251; 53.6 µM (inactive) in the assay on UACC-62. Besides, the GI50 in the assay with UO-31 is > 100 µM (inactive).
Regarding `Cc1ccc(S(=O)(=O)NC(=O)NC(CO)C(=O)O)cc1` (stereo not given), the GI50 in the assay on COLO 205, with HOP-62, in the assay on HOP-92, in the assay with LOX IMVI, with MCF7 and in the assay with MDA-MB-231 was > 100 µM (inactive) throughout. For the same molecule, the GI50 in the assay on NCI-H23, in the assay with NCI-H460, in the assay on OVCAR-4, in the assay on RXF 393, in the assay on SF-295 and in the assay with SK-MEL-2 was > 100 µM (inactive) throughout. The GI50 with SK-MEL-5, with SNB-19, with SR, in the assay with TK-10, with U-251 and with UACC-62 was > 100 µM (inactive) in each case. The GI50 in the assay on UO-31 is > 100 µM (inactive).
Regarding `Nc1ccc(-c2nc3ccccc3s2)cc1C#Cc1ccccc1`, the GI50 in the assay on CAKI-1 is 15.8 µM (inactive); with COLO 205 it was 16.3 µM (inactive); with HOP-62 it was 14.5 µM (inactive); with HOP-92 it was 18.8 µM (inactive); in the assay on LOX IMVI, 19 µM (inactive); in the assay on MCF7, 1.59 µM (inactive). Also, the GI50 in the assay with MDA-MB-231 was 19.7 µM (inactive); in the assay on NCI-H23 it was 20.9 µM (inactive); in the assay with NCI-H460 it was 17 µM (inactive); in the assay with OVCAR-4 it was 20.6 µM (inactive); in the assay with RXF 393 it was 17.3 µM (inactive); with SF-295 it was 21.2 µM (inactive). For the same molecule, the GI50 was 17 µM (inactive) in the assay with SK-MEL-5; 22.3 µM (inactive) in the assay with SNB-19; 37.5 µM (inactive) in the assay with SR; 13.9 µM (inactive) in the assay with TK-10; 20.1 µM (inactive) in the assay on U-251; 17.9 µM (inactive) in the assay with UACC-62. In the assay with UO-31, the GI50 is 18.3 µM (inactive).
As to `C=C(Br)C(Cl)(CBr)CCC(Br)C(C)(C)Cl` (stereo not given), the GI50 was > 10 µM (inactive) in the assay on CAKI-1; > 10 µM (inactive) in the assay on COLO 205; > 10 µM (inactive) in the assay with HOP-62; > 10 µM (inactive) in the assay on HOP-92; 7.83 µM (inactive) in the assay with MCF7; > 10 µM (inactive) with MDA-MB-231. The GI50 in the assay with NCI-H23, with OVCAR-4, with RXF 393, in the assay with SF-295, in the assay with SK-MEL-2 and in the assay with SK-MEL-5 was > 10 µM (inactive) in each case. In addition, the GI50 in the assay on SNB-19, in the assay with SR, in the assay with TK-10, in the assay with U-251, in the assay on UACC-62 and in the assay on UO-31 was > 10 µM (inactive) in each case.
With `COc1ccc(N(C(=O)Nc2ccc(Cl)c(Cl)c2)c2ccccc2)cc1`, the GI50 in the assay on CAKI-1, with COLO 205, with HOP-62, with HOP-92, with LOX IMVI and in the assay on MCF7 was > 10 µM (inactive) throughout. In addition, the GI50 in the assay with MDA-MB-231, in the assay with NCI-H23, with NCI-H460, in the assay with OVCAR-4, in the assay on RXF 393 and with SF-295 was > 10 µM (inactive) in each case. Also, the GI50 in the assay with SK-MEL-5, with SNB-19, in the assay on SR, in the assay with TK-10, with U-251 and in the assay with UACC-62 was > 10 µM (inactive) each time. The GI50 with UO-31 is > 10 µM (inactive).
`CC1(CCCO)CCCCCC(C)(CCCO)C1=O` (stereo not given): the GI50 with CAKI-1 was > 100 µM (inactive); in the assay with COLO 205 it was > 100 µM (inactive); in the assay on HOP-62 it was > 100 µM (inactive); in the assay with HOP-92, > 100 µM (inactive); in the assay on LOX IMVI, > 100 µM (inactive); with MCF7, 70.6 µM (inactive). Also, the GI50 in the assay on MDA-MB-231, in the assay with NCI-H23, with NCI-H460, with OVCAR-4, in the assay on RXF 393 and in the assay with SF-295 was > 100 µM (inactive) throughout. Also, the GI50 in the assay on SK-MEL-2, with SK-MEL-5, with SNB-19, with SR, in the assay on U-251 and with UACC-62 was > 100 µM (inactive) in each case. The GI50 in the assay with UO-31 is > 100 µM (inactive).
For the molecule `COCOc1c(C(OCOC)c2cnc(Sc3ccccc3)n2C)ccc(OC)c1OC` (stereo not given), the GI50 in the assay on CAKI-1, in the assay with HOP-62, in the assay on HOP-92, in the assay on LOX IMVI, with MCF7 and in the assay with MDA-MB-231 was > 100 µM (inactive) each time. For the same molecule, the GI50 in the assay on NCI-H23 is > 100 µM (inactive); in the assay on NCI-H460, > 100 µM (inactive); in the assay with OVCAR-4 it was > 100 µM (inactive); with RXF 393, 83.4 µM (inactive); in the assay with SF-295 it was > 100 µM (inactive); in the assay with SK-MEL-2, > 100 µM (inactive). Besides, the GI50 is 63.8 µM (inactive) in the assay with SK-MEL-5; > 100 µM (inactive) in the assay on SNB-19; 52.5 µM (inactive) with SR; > 100 µM (inactive) in the assay on TK-10; > 100 µM (inactive) in the assay with U-251; > 100 µM (inactive) with UACC-62. The GI50 in the assay with UO-31 is 73.6 µM (inactive).
In the case of `O=C(N/N=C\c1ccc([N+](=O)[O-])cc1)c1ccccc1Nc1ccccc1C(=O)N/N=C/c1ccc([N+](=O)[O-])cc1`, the GI50 was > 100 µM (inactive) with CAKI-1; > 100 µM (inactive) with COLO 205; > 100 µM (inactive) in the assay with HOP-62; > 100 µM (inactive) in the assay with HOP-92; > 100 µM (inactive) in the assay on MCF7; 25.8 µM (inactive) in the assay with MDA-MB-231. Besides, the GI50 in the assay on NCI-H23, in the assay on NCI-H460, in the assay with OVCAR-4, with RXF 393, with SF-295 and in the assay with SK-MEL-2 was > 100 µM (inactive) each time. Also, the GI50 was > 100 µM (inactive) in the assay on SK-MEL-5; > 100 µM (inactive) with SNB-19; 79.3 µM (inactive) in the assay with SR; > 100 µM (inactive) with TK-10; > 100 µM (inactive) in the assay on U-251; > 100 µM (inactive) in the assay on UACC-62. For the same molecule, the GI50 with UO-31 was > 100 µM (inactive).
Regarding `CC(C)C(CC(=O)OCC(CO)OC(=O)CC(C(C)C)C(C)C)C(C)C` (stereo not given), the GI50 was 12.3 µM (inactive) with CAKI-1; 6.73 µM (inactive) in the assay with COLO 205; 10.5 µM (inactive) in the assay with HOP-62; 2.75 µM (inactive) with HOP-92; 17.5 µM (inactive) with MCF7; 15.7 µM (inactive) with MDA-MB-231. Also, the GI50 is 16.6 µM (inactive) with NCI-H23; 11.8 µM (inactive) in the assay with NCI-H460; 18 µM (inactive) with OVCAR-4; 16.6 µM (inactive) in the assay on RXF 393; 6.27 µM (inactive) in the assay on SF-295; 18.2 µM (inactive) with SK-MEL-2. Further, the GI50 is 11.9 µM (inactive) with SK-MEL-5; 14.7 µM (inactive) with SNB-19; 22.1 µM (inactive) in the assay with SR; 13.3 µM (inactive) with TK-10; 13.1 µM (inactive) with U-251; 15.8 µM (inactive) in the assay on UACC-62. Moreover, in the assay with UO-31, the GI50 is 14.6 µM (inactive).
`CC1C2CC(CC23OCC(CCl)O3)C1(C)C` (stereo not given): the GI50 in the assay with CAKI-1, in the assay on COLO 205, with HOP-62, in the assay on HOP-92, in the assay with LOX IMVI and with MCF7 was > 100 µM (inactive) each time. For the same molecule, the GI50 in the assay with MDA-MB-231, in the assay on NCI-H23, in the assay with NCI-H460, with OVCAR-4, in the assay on RXF 393 and in the assay on SF-295 was > 100 µM (inactive) each time. Further, the GI50 with SK-MEL-5, in the assay with SNB-19, in the assay on SR, in the assay on TK-10, with UACC-62 and in the assay on UO-31 was > 100 µM (inactive) each time.
`O=C1/C(=C/c2ccccc2O)N=C(c2ccccc2)N1C1Nc2cc3c(cc2S1)NC(N1C(=O)/C(=C/c2ccccc2O)N=C1c1ccccc1)S3` (stereo not given): the GI50 in the assay on CAKI-1 was 56.5 µM (inactive); in the assay on HOP-62, 31.2 µM (inactive); with HOP-92, 0.489 µM (active); in the assay with LOX IMVI it was 42.2 µM (inactive); with MCF7, 2.13 µM (inactive); in the assay with MDA-MB-231, 32.7 µM (inactive). The GI50 is 31.9 µM (inactive) in the assay with NCI-H23; 12.5 µM (inactive) in the assay with NCI-H460; 60.5 µM (inactive) with OVCAR-4; 23.7 µM (inactive) in the assay with RXF 393; 42.1 µM (inactive) in the assay on SF-295; 35.2 µM (inactive) in the assay on SK-MEL-2. The GI50 in the assay with SK-MEL-5 was 29.7 µM (inactive); in the assay with SR, 18.3 µM (inactive); in the assay on TK-10, 25.4 µM (inactive); with U-251, 29.6 µM (inactive); in the assay on UO-31, 23 µM (inactive).
